The record followed here is ChEMBL document CHEMBL5032523, “Discovery of thiazolidin-4-one analogue as selective GSK-3β inhibitor through structure based virtual screening” (Bioorg Med Chem Lett, 2021).

The structures appear in SMILES notation. Calls of active or inactive are those of the source. The rule behind the calls is not given here.

Assay [1] addresses T1, Serine/threonine-protein kinase pim-1 (Homo sapiens, UniProt P11309). The assay is described as follows: Inhibition of PIM1 (unknown origin).
Target sequence in this assay (P11309 whole entry): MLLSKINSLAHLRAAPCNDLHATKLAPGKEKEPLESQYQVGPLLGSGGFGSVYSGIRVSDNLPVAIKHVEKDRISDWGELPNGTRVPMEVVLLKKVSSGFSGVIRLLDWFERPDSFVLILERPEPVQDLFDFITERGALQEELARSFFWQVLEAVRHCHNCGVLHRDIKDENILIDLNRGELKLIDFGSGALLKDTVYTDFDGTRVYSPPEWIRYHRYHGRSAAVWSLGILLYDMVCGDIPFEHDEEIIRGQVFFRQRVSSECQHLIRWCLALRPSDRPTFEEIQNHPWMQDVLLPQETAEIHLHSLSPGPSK
In assay [2] the target is T2, Serine/threonine-protein kinase haspin (Homo sapiens, UniProt Q8TF76).
T2 sequence (Q8TF76 whole entry): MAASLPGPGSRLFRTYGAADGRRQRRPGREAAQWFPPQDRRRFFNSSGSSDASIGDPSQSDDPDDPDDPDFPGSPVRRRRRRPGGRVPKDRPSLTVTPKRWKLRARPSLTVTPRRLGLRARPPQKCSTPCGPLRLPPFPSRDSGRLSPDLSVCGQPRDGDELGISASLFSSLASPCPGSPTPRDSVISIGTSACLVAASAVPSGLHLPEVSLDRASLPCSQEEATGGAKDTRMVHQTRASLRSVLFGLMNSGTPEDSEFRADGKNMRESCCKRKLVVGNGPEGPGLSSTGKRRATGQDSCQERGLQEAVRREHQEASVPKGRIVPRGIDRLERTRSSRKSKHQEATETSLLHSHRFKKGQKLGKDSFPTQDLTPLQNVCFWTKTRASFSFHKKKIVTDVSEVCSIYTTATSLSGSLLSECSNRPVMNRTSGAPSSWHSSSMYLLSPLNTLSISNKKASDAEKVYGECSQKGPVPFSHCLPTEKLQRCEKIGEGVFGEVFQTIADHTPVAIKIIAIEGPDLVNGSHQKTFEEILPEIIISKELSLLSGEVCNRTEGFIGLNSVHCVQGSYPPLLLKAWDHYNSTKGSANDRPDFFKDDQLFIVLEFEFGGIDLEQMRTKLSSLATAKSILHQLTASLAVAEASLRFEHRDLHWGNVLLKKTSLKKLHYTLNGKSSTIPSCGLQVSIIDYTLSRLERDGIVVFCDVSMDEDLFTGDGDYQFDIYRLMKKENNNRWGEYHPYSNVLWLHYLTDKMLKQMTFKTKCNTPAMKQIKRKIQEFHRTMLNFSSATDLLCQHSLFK
Nature of the assay: Inhibition of HASPIN (unknown origin).

In assay [3] the target is T1, Serine/threonine-protein kinase pim-1. Nature of the assay: Inhibition of PIM1 (unknown origin) at 10 uM relative to control.
Target sequence in this assay (P11309 whole entry, looked up): as the sequence (P11309 whole entry) above
Assay [4] addresses T3, Glycogen synthase kinase-3 beta (Homo sapiens, UniProt P49841). The assay is described as follows: Inhibition of GSK3beta (unknown origin) at 10 uM relative to control.
Target sequence in this assay (P49841 whole entry, looked up): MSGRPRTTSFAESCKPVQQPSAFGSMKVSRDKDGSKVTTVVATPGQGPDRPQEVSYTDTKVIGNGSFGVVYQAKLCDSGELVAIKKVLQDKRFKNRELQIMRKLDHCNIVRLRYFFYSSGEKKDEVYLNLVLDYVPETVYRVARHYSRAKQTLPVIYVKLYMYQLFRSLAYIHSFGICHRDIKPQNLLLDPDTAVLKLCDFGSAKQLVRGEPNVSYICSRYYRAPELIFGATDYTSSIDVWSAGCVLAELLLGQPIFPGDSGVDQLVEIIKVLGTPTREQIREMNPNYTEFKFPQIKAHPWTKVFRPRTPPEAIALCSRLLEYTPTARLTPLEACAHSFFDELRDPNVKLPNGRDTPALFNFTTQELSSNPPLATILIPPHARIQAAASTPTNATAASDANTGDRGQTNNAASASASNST
In assay [5] the target is T4, Dual specificity tyrosine-phosphorylation-regulated kinase 1A (Homo sapiens, UniProt Q13627). Nature of the assay: Inhibition of DYRK1A (unknown origin) at 10 uM relative to control.
For assay [6], the target named is T5, Cyclin-dependent kinase 5 (Homo sapiens, UniProt Q00535). The assay is described as follows: Inhibition of CDK5 (unknown origin).
Target sequence in this assay (Q00535 whole entry): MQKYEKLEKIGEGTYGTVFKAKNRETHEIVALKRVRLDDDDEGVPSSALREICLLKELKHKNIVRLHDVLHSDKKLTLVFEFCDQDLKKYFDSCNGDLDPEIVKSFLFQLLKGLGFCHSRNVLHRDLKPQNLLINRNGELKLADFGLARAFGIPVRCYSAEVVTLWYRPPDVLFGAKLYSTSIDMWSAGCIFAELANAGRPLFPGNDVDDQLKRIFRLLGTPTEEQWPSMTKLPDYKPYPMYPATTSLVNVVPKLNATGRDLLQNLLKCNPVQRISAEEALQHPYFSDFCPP
The target in assay [7] is T6, Casein kinase I delta/epsilon (Homo sapiens, UniProt P48730+P49674). The assay is described as follows: Inhibition of CK-1 delta/epsilon (unknown origin) at 10 uM relative to control. The assay is classed as protein-complex assay.
Target sequence in this assay (P48730 whole entry, looked up): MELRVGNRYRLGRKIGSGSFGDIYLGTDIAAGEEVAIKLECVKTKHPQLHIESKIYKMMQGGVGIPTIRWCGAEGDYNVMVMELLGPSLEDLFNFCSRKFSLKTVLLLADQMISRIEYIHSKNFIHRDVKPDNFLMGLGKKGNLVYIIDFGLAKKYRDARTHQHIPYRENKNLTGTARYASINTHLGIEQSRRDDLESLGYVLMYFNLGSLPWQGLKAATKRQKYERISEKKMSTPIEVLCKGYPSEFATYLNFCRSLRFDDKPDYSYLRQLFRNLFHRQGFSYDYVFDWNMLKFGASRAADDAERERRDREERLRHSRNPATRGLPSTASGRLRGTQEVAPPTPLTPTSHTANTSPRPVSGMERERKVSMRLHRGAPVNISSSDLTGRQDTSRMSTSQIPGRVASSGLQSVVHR
Target sequence in this assay (P49674 whole entry, looked up): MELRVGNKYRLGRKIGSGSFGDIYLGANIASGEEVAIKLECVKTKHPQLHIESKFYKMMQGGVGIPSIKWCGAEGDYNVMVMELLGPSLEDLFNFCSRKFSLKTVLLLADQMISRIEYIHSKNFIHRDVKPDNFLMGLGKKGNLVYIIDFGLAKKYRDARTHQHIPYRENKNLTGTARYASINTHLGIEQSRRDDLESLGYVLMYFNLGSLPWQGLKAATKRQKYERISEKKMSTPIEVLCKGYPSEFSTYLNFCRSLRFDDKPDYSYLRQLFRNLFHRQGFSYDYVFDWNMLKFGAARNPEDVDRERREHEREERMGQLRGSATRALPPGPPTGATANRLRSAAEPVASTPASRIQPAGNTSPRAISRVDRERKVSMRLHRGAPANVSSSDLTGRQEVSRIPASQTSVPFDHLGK
For assay [8], the target named is T7, Serine/threonine-protein kinase haspin (Homo sapiens) (UniProt Q8TF76).
T7 sequence (whole entry): T2 sequence (Q8TF76 whole entry)
The assay is described as follows: Inhibition of HASPIN (unknown origin) at 10 uM relative to control.

Assay [9] concerns the target T6, Casein kinase I delta/epsilon. Nature of the assay: Inhibition of CK-1 delta/epsilon (unknown origin). The assay is classed as protein-complex assay.
Target sequence in this assay (P48730 whole entry): as the sequence (P48730 whole entry, looked up) above
Target sequence in this assay (P49674 whole entry): as the sequence (P49674 whole entry, looked up) above
Assay [10] deals with T3, Glycogen synthase kinase-3 beta. Nature of the assay: Non-competitive inhibition of GSK3beta (unknown origin) at 50 uM by ATP competitive assay.
Target sequence in this assay (P49841 whole entry, looked up): as the sequence (P49841 whole entry, looked up) above
In assay [11] the target is T8, Dual specificity protein kinase CLK1 (Homo sapiens, UniProt P49759). Nature of the assay: Inhibition of CLK1 (unknown origin).
Target sequence in this assay (P49759 whole entry): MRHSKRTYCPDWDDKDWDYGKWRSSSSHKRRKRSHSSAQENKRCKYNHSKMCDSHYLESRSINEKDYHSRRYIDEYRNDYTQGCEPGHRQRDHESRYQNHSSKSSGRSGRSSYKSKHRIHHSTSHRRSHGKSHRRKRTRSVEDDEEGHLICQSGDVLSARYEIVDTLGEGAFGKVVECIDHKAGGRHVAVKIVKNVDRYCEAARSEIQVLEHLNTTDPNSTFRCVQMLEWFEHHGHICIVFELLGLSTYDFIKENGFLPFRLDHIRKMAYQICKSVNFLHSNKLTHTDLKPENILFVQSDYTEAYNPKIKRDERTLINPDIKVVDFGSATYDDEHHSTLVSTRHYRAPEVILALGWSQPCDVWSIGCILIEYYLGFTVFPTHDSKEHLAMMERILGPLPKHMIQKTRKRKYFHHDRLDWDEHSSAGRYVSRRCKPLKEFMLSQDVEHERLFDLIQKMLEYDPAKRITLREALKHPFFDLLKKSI
In assay [12] the target is T4, Dual specificity tyrosine-phosphorylation-regulated kinase 1A. The assay is described as follows: Inhibition of DYRK1A (unknown origin).
Assay [13] deals with T9, Cyclin-dependent kinase 9 (Homo sapiens, UniProt P50750). Nature of the assay: Inhibition of CDK9 (unknown origin).
T9 sequence (P50750 whole entry): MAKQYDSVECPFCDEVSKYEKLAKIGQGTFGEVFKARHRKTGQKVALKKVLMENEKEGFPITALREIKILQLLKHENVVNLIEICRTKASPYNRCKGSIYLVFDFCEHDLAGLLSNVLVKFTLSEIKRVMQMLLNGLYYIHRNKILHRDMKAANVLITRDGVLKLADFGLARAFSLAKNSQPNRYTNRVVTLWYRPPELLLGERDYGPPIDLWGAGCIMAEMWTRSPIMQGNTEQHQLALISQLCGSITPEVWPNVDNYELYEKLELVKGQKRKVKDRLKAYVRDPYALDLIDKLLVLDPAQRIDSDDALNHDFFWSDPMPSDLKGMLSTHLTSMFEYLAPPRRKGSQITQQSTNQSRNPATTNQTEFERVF
For assay [14], the target named is T3, Glycogen synthase kinase-3 beta. The assay is described as follows: Inhibition of GSK3beta (unknown origin).
Target sequence in this assay (P49841 whole entry): as the sequence (P49841 whole entry, looked up) above
The target of assay [15] is T8, Dual specificity protein kinase CLK1. Nature of the assay: Inhibition of CLK1 (unknown origin) at 10 uM relative to control.
Target sequence in this assay (P49759 whole entry, looked up): as the sequence (P49759 whole entry) above
Assay [16] deals with T5, Cyclin-dependent kinase 5. Nature of the assay: Inhibition of CDK5 (unknown origin) at 10 uM relative to control.
Target sequence in this assay (Q00535 whole entry, looked up): as the sequence (Q00535 whole entry) above
In assay [17] the target is T9, Cyclin-dependent kinase 9. Nature of the assay: Inhibition of CDK9 (unknown origin) at 10 uM relative to control.

The term IC50 denotes the midpoint of a concentration-inhibition curve. A high value points to weaker potency in that assay. What is called inhibition is how much of the control response was suppressed. On to `COc1cc(/C=C2\S/C(=N/c3ccc(C)c(C)c3)NC2=O)ccc1OCc1ccc2ccccc2c1`, for which the IC50 in assay [1], in assay [2], in assay [6], in assay [9], in assay [11] and in assay [12] was over 10 µM in each case. For the same compound, the IC50 in assay [13] is over 10 µM; in assay [14], 1080 nM. The inhibition in [3] turned out to be 29%; in assay [4], 80%; in assay [5], 16%; in [7], 14%; in [8], 22%; in assay [15], 22%. Besides, the figures for the inhibition in assay [16] and in assay [17] were 11% and 29%, respectively. For the same compound, the inhibition result in [10] is “Active”.
For the compound `Cc1cc(C)c2cc(CN(CCc3ccccc3)Cc3nnnn3Cc3ccco3)c(=O)[nH]c2c1`, the inhibition in assay [3] stood at 16%; in [4] it was 25%; in [5], 6%; in assay [7], 12%; in assay [8] it was 29%; in assay [16], 7%. For the same compound, the inhibition in assay [17] worked out at 23%. In addition, in assay [15], the inhibition entry is “inactive”.
Regarding `Clc1cccc(OCCc2cc([C@@H]3CCN(Cc4cccc5ncccc45)C3)n[nH]2)c1`, the inhibition in assay [3] came out at 22%; in assay [4] it was 10%; in assay [7], 37%; in [8] it was 33%; in [15], 9%; in [17] it was 29%. The inhibition entry in assay [5] and in assay [16] was “inactive” throughout.
With `Clc1ccccc1OCCc1cc([C@@H]2CCN(Cc3cccc4ncccc34)C2)n[nH]1`, the inhibition in [3] came to 19%; in [4], 5%; in assay [7], 28%; in assay [15], 11%; in assay [17], 18%. Moreover, the inhibition result in assay [5], in [8] and in assay [16] was “inactive” throughout.
